# Measurements taken from publication PMC12281424, “A Rac-specific competitive inhibitor of guanine nucleotide binding reduces metastasis in triple-negative breast cancer” (Cell Reports Medicine, 2025).
# Experiments:
# MST1(h) = MST1(h) (Homo sapiens, UniProt Q13043); experiment: Kinase Profiler; assay type: biochemical
# Method: (§1) Blood cell counts, kinase profiler, safety screen, bacterial cytotoxicity, Ames, micronucleus assays were performed by the company Eurofins (France). The kinase profiler was performed by the company Eurofins (Discovery, Panlab and Cerep).
# GSK3β(h) = GSK3β(h) (Homo sapiens, UniProt P49841); experiment: Kinase Profiler; assay type: biochemical
# Method: as §1
# SLK(h) = SLK(h) (Homo sapiens, UniProt Q9H2G2); experiment: Kinase Profiler; assay type: biochemical
# Method: (§2) The kinase profiler was performed by the company Eurofins (Discovery, Panlab and Cerep).
# Aurora-A(h) = Aurora-A(h) (Homo sapiens, UniProt O14965); experiment: Kinase Profiler; assay type: biochemical
# Method: as §1
# SAPK2a(T106M)(h) = SAPK2a(T106M)(h) (Homo sapiens, UniProt Q16539, T106M); experiment: Kinase Profiler; assay type: biochemical
# Method: as §2
# PKCβI(h) = PKCβI(h) (Homo sapiens, UniProt P05771); experiment: Kinase Profiler; assay type: biochemical
# Method: as §2
# PIP4K2a(h) = PIP4K2a(h) (Homo sapiens, UniProt P48426); experiment: Kinase Profiler; assay type: biochemical
# Method: as §2
# MSK2(h) = MSK2(h) (Homo sapiens, UniProt O75676); experiment: Kinase Profiler; assay type: biochemical
# Method: as §1
# Ret(V804M)(h) = Ret(V804M)(h) (Homo sapiens, UniProt P07949, V804M); experiment: Kinase Profiler; assay type: biochemical
# Method: as §2
# STK16(h) = STK16(h) (Homo sapiens, UniProt O75716); experiment: Kinase Profiler; assay type: biochemical
# STK16(h), sequence (O75716 whole entry): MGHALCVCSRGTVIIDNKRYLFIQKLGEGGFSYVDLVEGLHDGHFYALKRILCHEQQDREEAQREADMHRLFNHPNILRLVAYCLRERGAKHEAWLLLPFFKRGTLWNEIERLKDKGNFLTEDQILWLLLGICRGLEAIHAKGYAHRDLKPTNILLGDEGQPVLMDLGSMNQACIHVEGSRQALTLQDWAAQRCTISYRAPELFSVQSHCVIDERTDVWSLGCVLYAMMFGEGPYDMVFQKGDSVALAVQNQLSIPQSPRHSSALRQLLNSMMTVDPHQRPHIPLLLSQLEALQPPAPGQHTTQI
# Method: as §2
# PDHK2(h) = PDHK2(h) (Homo sapiens, UniProt Q15119); experiment: Kinase Profiler; assay type: biochemical
# Method: as §1
# WNK4(h) = WNK4(h) (Homo sapiens, UniProt Q96J92); experiment: Kinase Profiler; assay type: biochemical
# Method: as §2
# MST4(h) = MST4(h) (Homo sapiens, UniProt Q9P289); experiment: Kinase Profiler; assay type: biochemical
# Method: as §2
# PI3K (p110b/p85b)(m) = PI3K (p110b/p85b)(m) (Mus musculus, UniProt Q8BTI9); experiment: Kinase Profiler; assay type: biochemical
# Method: as §1
# PPARγ = PPARγ (Homo sapiens, UniProt P37231); experiment: Safety screen; assay type: binding
# PPARγ, sequence (P37231 whole entry): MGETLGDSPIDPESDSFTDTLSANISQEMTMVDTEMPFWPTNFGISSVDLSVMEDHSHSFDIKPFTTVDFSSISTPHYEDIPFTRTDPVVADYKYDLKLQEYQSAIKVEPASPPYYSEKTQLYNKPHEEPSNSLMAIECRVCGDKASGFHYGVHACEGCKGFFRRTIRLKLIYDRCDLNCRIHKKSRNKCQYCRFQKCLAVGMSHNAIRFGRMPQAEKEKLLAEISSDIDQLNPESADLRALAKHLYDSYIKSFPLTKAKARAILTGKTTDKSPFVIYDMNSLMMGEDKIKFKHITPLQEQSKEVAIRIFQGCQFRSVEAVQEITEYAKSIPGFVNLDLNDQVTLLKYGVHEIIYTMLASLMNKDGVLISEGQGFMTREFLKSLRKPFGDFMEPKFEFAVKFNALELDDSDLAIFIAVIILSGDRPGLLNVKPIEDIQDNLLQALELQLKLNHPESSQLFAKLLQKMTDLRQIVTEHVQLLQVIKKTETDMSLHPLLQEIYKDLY
# Method: as §1
# WNK1(h) = WNK1(h) (Homo sapiens, UniProt Q9H4A3); experiment: Kinase Profiler; assay type: biochemical
# Method: as §2
# MSK1(h) = MSK1(h) (Homo sapiens, UniProt O75582); experiment: Kinase Profiler; assay type: biochemical
# Method: as §1
# c-RAF(h) = c-RAF(h) (Homo sapiens, UniProt P04049); experiment: Kinase Profiler; assay type: biochemical
# c-RAF(h), sequence (P04049 whole entry): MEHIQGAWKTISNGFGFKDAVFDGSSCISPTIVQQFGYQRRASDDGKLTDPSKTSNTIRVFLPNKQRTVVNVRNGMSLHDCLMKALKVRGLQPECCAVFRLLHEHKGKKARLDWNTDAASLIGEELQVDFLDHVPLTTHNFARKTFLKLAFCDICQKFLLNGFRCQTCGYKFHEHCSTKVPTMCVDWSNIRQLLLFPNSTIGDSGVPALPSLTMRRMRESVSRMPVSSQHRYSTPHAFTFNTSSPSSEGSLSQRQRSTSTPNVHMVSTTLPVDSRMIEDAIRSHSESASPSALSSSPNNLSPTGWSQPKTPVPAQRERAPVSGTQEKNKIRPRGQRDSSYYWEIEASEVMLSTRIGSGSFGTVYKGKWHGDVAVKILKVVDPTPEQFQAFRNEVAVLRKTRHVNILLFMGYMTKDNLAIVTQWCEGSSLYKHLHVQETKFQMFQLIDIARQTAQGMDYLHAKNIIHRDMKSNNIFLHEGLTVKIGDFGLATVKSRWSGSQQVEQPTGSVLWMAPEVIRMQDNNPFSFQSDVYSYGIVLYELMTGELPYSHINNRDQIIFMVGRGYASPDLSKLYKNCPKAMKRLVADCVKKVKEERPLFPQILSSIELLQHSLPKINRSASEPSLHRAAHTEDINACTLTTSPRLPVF
# Method: as §2
# B-Raf(V599E)(h) = B-Raf(V599E)(h) (Homo sapiens, UniProt P15056, V600E); experiment: Kinase Profiler; assay type: biochemical
# Method: as §1
# CaMKIß(h) = CaMKIß(h) (Homo sapiens, UniProt Q6P2M8); experiment: Kinase Profiler; assay type: biochemical
# Method: as §1
# CDKL4(h) = CDKL4(h) (Homo sapiens, UniProt Q5MAI5); experiment: Kinase Profiler; assay type: biochemical
# Method: as §2
# EphA7(h) = EphA7(h) (Homo sapiens, UniProt Q15375); experiment: Kinase Profiler; assay type: biochemical
# EphA7(h), sequence (Q15375 28-998): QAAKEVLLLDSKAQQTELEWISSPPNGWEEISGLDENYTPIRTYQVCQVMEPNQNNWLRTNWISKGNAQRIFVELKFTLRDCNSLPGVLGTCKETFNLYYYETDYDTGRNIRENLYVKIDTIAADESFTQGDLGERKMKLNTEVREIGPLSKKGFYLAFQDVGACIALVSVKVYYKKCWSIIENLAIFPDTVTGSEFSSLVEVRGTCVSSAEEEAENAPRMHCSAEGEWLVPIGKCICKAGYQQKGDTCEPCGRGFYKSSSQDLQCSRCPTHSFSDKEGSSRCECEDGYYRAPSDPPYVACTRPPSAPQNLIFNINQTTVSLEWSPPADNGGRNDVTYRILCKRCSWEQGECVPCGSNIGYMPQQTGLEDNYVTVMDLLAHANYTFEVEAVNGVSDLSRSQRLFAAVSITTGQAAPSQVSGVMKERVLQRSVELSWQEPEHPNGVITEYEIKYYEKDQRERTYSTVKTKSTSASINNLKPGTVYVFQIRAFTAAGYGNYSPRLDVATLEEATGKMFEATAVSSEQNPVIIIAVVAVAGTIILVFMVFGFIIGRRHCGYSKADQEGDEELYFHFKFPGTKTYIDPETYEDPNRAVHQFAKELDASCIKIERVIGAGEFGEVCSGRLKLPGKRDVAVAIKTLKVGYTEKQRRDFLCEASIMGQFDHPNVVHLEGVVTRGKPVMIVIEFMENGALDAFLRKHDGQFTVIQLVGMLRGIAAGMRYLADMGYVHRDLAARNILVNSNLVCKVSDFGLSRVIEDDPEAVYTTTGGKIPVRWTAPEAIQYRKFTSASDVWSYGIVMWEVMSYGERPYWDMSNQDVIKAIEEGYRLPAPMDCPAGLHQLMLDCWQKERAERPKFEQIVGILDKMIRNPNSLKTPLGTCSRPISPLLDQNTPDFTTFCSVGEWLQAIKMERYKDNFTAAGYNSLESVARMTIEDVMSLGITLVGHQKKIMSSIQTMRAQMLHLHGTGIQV
# Method: as §1
# AMPKα1(h) = AMPKα1(h) (Homo sapiens, UniProt Q13131); experiment: Kinase Profiler; assay type: biochemical
# AMPKα1(h), sequence (Q13131 whole entry): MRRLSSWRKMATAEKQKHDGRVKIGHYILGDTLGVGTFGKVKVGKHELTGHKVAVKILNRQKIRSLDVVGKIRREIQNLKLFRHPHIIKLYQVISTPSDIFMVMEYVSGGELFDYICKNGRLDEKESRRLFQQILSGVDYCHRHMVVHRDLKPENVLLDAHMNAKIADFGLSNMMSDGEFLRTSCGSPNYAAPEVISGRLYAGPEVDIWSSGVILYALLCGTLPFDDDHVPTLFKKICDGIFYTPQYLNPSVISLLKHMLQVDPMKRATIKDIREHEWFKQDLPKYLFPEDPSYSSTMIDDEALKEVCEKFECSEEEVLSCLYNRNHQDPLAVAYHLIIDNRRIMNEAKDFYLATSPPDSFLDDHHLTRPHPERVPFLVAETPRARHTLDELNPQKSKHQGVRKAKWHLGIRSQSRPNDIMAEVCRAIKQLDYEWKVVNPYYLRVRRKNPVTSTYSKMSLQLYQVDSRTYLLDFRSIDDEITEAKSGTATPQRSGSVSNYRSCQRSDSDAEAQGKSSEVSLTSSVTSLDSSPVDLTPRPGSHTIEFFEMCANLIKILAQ
# AMPKα1(h), sequence (Q9Y478 whole entry partner): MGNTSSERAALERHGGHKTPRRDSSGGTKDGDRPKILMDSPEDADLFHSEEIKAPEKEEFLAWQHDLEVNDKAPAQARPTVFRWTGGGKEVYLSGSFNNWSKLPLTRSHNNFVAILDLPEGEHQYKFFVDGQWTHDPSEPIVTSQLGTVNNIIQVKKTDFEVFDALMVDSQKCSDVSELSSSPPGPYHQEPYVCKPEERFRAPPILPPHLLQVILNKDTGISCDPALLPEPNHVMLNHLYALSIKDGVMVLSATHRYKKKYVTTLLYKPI
# AMPKα1(h), sequence (P54619 whole entry partner): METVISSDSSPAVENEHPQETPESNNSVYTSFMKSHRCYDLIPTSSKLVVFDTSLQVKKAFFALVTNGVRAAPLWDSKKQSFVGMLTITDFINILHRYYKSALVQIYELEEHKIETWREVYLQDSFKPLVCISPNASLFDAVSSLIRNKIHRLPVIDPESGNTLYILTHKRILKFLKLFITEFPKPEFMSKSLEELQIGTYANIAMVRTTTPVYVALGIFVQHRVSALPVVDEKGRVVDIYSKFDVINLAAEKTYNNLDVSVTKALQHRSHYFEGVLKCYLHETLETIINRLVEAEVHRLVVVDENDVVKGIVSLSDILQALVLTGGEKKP
# Method: as §1
# A-Raf(h) = A-Raf(h) (Homo sapiens, UniProt P10398); experiment: Kinase Profiler; assay type: biochemical
# Method: as §1
# Adrenergic α2B = Adrenergic α2B (Homo sapiens, UniProt P18089); experiment: Safety screen; assay type: binding
# Method: Blood cell counts, kinase profiler, safety screen, bacterial cytotoxicity, Ames, micronucleus assays were performed by the company Eurofins (France).
# cKit(V654A)(h) = cKit(V654A)(h) (Homo sapiens, UniProt P10721, V654A); experiment: Kinase Profiler; assay type: biochemical
# Method: as §1
# [1] = test system: Glycine, Strychnine-Sensitive; experiment: Safety screen; assay type: binding, rat
# PI3K (p110a/p85a)(m) = PI3K (p110a/p85a)(m) (Mus musculus, UniProt P42337); experiment: Kinase Profiler; assay type: biochemical
# Method: as §1
# GRK6(h) = GRK6(h) (Homo sapiens, UniProt P43250); experiment: Kinase Profiler; assay type: biochemical
# Method: as §1
# Ron(h) = Ron(h) (Homo sapiens, UniProt Q04912); experiment: Kinase Profiler; assay type: biochemical
# Ron(h), sequence (Q04912 25-1400): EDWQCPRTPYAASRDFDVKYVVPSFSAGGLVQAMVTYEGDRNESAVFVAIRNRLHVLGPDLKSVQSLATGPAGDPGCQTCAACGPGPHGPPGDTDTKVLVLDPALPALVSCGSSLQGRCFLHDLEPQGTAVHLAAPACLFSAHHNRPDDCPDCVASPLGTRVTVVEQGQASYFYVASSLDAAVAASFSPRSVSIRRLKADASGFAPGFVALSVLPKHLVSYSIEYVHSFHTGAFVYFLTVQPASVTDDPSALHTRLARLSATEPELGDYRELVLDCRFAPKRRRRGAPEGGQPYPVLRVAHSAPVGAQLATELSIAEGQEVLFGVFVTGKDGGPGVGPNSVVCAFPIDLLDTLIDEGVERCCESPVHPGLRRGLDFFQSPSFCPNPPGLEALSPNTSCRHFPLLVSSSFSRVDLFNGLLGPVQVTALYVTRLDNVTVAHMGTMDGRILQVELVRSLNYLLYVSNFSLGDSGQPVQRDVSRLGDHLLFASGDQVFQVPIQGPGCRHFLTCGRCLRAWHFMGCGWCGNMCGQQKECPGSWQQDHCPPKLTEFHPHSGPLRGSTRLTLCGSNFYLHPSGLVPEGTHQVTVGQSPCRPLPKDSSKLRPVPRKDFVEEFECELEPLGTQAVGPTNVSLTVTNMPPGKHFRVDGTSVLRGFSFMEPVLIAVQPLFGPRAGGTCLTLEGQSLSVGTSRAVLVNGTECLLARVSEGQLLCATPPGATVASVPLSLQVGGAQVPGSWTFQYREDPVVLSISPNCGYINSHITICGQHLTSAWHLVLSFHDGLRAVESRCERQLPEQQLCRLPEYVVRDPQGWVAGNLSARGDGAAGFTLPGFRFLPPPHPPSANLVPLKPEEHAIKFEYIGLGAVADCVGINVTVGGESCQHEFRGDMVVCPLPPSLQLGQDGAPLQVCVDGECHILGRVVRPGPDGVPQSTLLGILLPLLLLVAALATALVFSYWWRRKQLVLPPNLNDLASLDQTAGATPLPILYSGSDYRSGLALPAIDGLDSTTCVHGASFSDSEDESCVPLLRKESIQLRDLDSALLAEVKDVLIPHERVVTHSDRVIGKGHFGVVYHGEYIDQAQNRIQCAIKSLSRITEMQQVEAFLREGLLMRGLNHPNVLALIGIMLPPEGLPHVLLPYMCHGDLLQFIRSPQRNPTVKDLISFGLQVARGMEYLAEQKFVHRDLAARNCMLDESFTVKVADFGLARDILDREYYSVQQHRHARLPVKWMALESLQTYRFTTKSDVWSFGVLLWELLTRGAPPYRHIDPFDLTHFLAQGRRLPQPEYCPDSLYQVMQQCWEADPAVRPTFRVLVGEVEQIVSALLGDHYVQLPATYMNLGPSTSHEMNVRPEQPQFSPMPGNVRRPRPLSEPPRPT
# Method: as §1
# PAK3(h) = PAK3(h) (Homo sapiens, UniProt O75914); experiment: Kinase Profiler; assay type: biochemical
# Method: as §2
# Arg(m) = Arg(m) (Mus musculus, UniProt Q4JIM5); experiment: Kinase Profiler; assay type: biochemical
# Method: as §1
# EphA5(h) = EphA5(h) (Homo sapiens, UniProt P54756); experiment: Kinase Profiler; assay type: biochemical
# Method: as §1
# ZIPK(h) = ZIPK(h) (Homo sapiens, UniProt O43293); experiment: Kinase Profiler; assay type: biochemical
# Method: as §2
structure (smiles),measurement,setting,value
COc1ccc(OC)c(NS(=O)(=O)c2ccc(NC(=O)CCSc3ccc(C)cc3)cc2)c1 [Compound A41],Activity(%),MST1(h),96%
same,Activity(%),GSK3β(h),90%
same,Activity(%),SLK(h),127%
same,Activity(%),Aurora-A(h),124%
same,Activity(%),SAPK2a(T106M)(h),98%
same,Activity(%),PKCβI(h),98%
same,Activity(%),PIP4K2a(h),95%
same,Activity(%),MSK2(h),105%
same,Activity(%),Ret(V804M)(h),106%
same,Activity(%),STK16(h),115%
same,Activity(%),PDHK2(h),96%
same,Activity(%),WNK4(h),107%
same,Activity(%),MST4(h),101%
same,Activity(%),PI3K (p110b/p85b)(m),100%
same,% inh.,PPARγ,-7%
same,Activity(%),WNK1(h),96%
same,Activity(%),MSK1(h),117%
same,Activity(%),c-RAF(h),93%
same,Activity(%),B-Raf(V599E)(h),87%
same,Activity(%),CaMKIß(h),114%
same,Activity(%),CDKL4(h),91%
same,Activity(%),EphA7(h),108%
same,Activity(%),AMPKα1(h),102%
same,Activity(%),A-Raf(h),85%
same,% inh.,Adrenergic α2B,9%
same,Activity(%),cKit(V654A)(h),99%
same,% inh.,[1],-1%
same,Activity(%),PI3K (p110a/p85a)(m),102%
same,Activity(%),GRK6(h),100%
same,Activity(%),Ron(h),110%
same,Activity(%),PAK3(h),107%
same,Activity(%),Arg(m),109%
same,Activity(%),EphA5(h),110%
same,Activity(%),ZIPK(h),103%
